Test results published in PubChem BioAssay AID330 (DTP/NCI, 2004).
Values joined by “and” are separate entries in the source; they are usually repeats but may differ in a detail not shown here. Equal entries are not always repeated. Inconclusive results and toxic doses are left out. How the source made its calls: active means survival T/C of 150% or more; inactive means T/C below 125% in these data. Square brackets hold non-standard residues; d marks the D form. Peptide text beside a SMILES is read from it. ξ: configuration not given here. ξN = NC(=O)CC(N)C(=O)O

System: P388 leukemia ip, CD2F1 mice, survival T/C
Experiment: NCI In Vivo Anticancer Drug Screen. Data for tumor model P388 Leukemia (intraperitoneal) in CD2F1 (CDF1) mice
Details: endpoint: median survival time, higher = longer survival
Summary of the method: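 Mice carrying the transplanted tumor received test compound or vehicle. Survival was recorded in each group, and the value is the treated-group measurement divided by that of the vehicle-treated control group.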

[1] = dose: 100.0 mg/kg/injection, schedule: Q04DX003 (ip), vehicle: saline
[2] = dose: 200.0 mg/kg/injection, schedule: Q04DX003 (ip), vehicle: saline
[3] = dose: 400.0 mg/kg/injection, schedule: Q04DX003 (ip), vehicle: saline
[4] = dose: 60.0 mg/kg/injection, schedule: Q01DX005 (ip), vehicle: saline with Tween-80
[5] = dose: 120.0 mg/kg/injection, schedule: Q01DX005 (ip), vehicle: saline with Tween-80
[6] = dose: 240.0 mg/kg/injection, schedule: Q01DX005 (ip), vehicle: saline with Tween-80
[7] = dose: 25.0 mg/kg/injection, schedule: Q01DX005 (ip), vehicle: saline with Tween-80
[8] = dose: 50.0 mg/kg/injection, schedule: Q01DX005 (ip), vehicle: saline with Tween-80
[9] = dose: 100.0 mg/kg/injection, schedule: Q01DX005 (ip), vehicle: saline with Tween-80
[10] = dose: 200.0 mg/kg/injection, schedule: Q01DX005 (ip), vehicle: saline with Tween-80
[11] = dose: 50.0 mg/kg/injection, schedule: Q01DX005 (ip), vehicle: Klucel (hydroxypropylcellulose) (HPC)
[12] = dose: 100.0 mg/kg/injection, schedule: Q01DX005 (ip), vehicle: Klucel (hydroxypropylcellulose) (HPC)
[13] = dose: 200.0 mg/kg/injection, schedule: Q01DX005 (ip), vehicle: Klucel (hydroxypropylcellulose) (HPC)

Measured: T/C

COC(=O)/C(C#N)=C1\C(=O)OCC1(C)C
inactive: [1] 104 % of control | [2] 94 % of control | [3] 98 % of control

Nc1nnc(CCC(=O)Nc2cc(Cl)c(Cl)cc2Cl)n1N
inactive: [4] 108 % of control | [5] 111 % of control | [6] 121 % of control

CCOC(=O)CSc1cc(O)c2ccccc2c1N=Nc1ccc(C(=O)O)cc1
inactive: dose: 12.5 mg/kg/injection, schedule: Q01DX005 (ip), vehicle: saline with Tween-80 94 % of control | [7] 88 % of control | [8] 88 % of control | [9] 86 % of control | [10] 93 % of control

CC(C)SC(=S)Nc1cccc(F)c1
inactive: dose: 50.0 mg/kg/injection, schedule: Q01DX009 (ip), vehicle: suspension in saline 107 % of control | dose: 100.0 mg/kg/injection, schedule: Q01DX009 (ip), vehicle: suspension in saline 109 % of control | dose: 200.0 mg/kg/injection, schedule: Q01DX009 (ip), vehicle: suspension in saline 107 % of control

CCc1nn2c(=O)nc(SC)nc2s1
inactive: dose: 12.5 mg/kg/injection, schedule: Q04DX003 (ip), vehicle: saline with Tween-80 102 % of control | dose: 25.0 mg/kg/injection, schedule: Q04DX003 (ip), vehicle: saline with Tween-80 100 % of control | dose: 50.0 mg/kg/injection, schedule: Q04DX003 (ip), vehicle: saline with Tween-80 102 % of control

CN(C)c1ccc(/C=C/c2ccnc3cc(Cl)ccc23)cc1
inactive: dose: 12.5 mg/kg/injection, schedule: Q01DX009 (ip), vehicle: saline with Tween-80 106 % of control | dose: 25.0 mg/kg/injection, schedule: Q01DX009 (ip), vehicle: saline with Tween-80 116 % of control | dose: 50.0 mg/kg/injection, schedule: Q01DX009 (ip), vehicle: saline with Tween-80 119 % of control

Cc1cccc2nnc(CCCc3nnc4cccc(C)n34)n12
inactive: dose: 100.0 mg/kg/injection, schedule: Q04DX003 (ip), vehicle: saline with Tween-80 98 % of control | dose: 200.0 mg/kg/injection, schedule: Q04DX003 (ip), vehicle: saline with Tween-80 97 % of control | dose: 400.0 mg/kg/injection, schedule: Q04DX003 (ip), vehicle: saline with Tween-80 96 % of control

Nc1nc(=S)c2ncn(C3OC(CO)CC3O)c2[nH]1 (stereo not given)
inactive: dose: 26.4 mg/kg/injection, schedule: Q04DX003 (ip), vehicle: saline 122 % of control | dose: 150.0 mg/kg/injection, schedule: Q04DX003 (ip), vehicle: saline 116 % of control

Nc1nnc(-c2cc(=O)c3cc(Cl)ccc3o2)s1
inactive: [8] 97 % of control | [9] 100 % of control | [10] 93 % of control

CCCCC(CC)(CCC)CCN (stereo not given)
inactive: dose: 6.25 mg/kg/injection, schedule: Q01DX009 (ip), vehicle: suspension in saline 104 % of control | dose: 12.5 mg/kg/injection, schedule: Q01DX009 (ip), vehicle: suspension in saline 107 % of control | dose: 25.0 mg/kg/injection, schedule: Q01DX009 (ip), vehicle: suspension in saline 102 % of control

O=C1Cn2c(cc(=O)c3ccccc32)O1
inactive: dose: 25.0 mg/kg/injection, schedule: Q01DX001 (ip), vehicle: saline with Tween-80 109 % of control | dose: 50.0 mg/kg/injection, schedule: Q01DX001 (ip), vehicle: saline with Tween-80 116 % of control | dose: 100.0 mg/kg/injection, schedule: Q01DX001 (ip), vehicle: saline with Tween-80 116 % of control

COc1ccc(-c2cncnc2N)cc1OC
inactive: dose: 50.0 mg/kg/injection, schedule: Q01DX009 (ip), vehicle: Klucel (hydroxypropylcellulose) (HPC) 95 % of control | dose: 100.0 mg/kg/injection, schedule: Q01DX009 (ip), vehicle: Klucel (hydroxypropylcellulose) (HPC) 97 % of control | dose: 200.0 mg/kg/injection, schedule: Q01DX009 (ip), vehicle: Klucel (hydroxypropylcellulose) (HPC) 89 % of control

CC(=NCCN=C(C)c1cc(C)ccc1O)c1cc(C)ccc1O
inactive: dose: 100.0 mg/kg/injection, schedule: Q04DX002 (ip), vehicle: Klucel (hydroxypropylcellulose) (HPC) 101 % of control | dose: 200.0 mg/kg/injection, schedule: Q04DX002 (ip), vehicle: Klucel (hydroxypropylcellulose) (HPC) 100 % of control | dose: 400.0 mg/kg/injection, schedule: Q04DX002 (ip), vehicle: Klucel (hydroxypropylcellulose) (HPC) 99 % of control

NCC(=O)NC(CC(N)=O)C(=O)O (stereo not given) (H-Gly-[ξN]-OH)
inactive: dose: 50.0 mg/kg/injection, schedule: Q01DX009 (ip), vehicle: saline 119 % of control | dose: 100.0 mg/kg/injection, schedule: Q01DX009 (ip), vehicle: saline 109 % of control | dose: 200.0 mg/kg/injection, schedule: Q01DX009 (ip), vehicle: saline 114 % of control

CC(=O)Nc1ccc([Se](N)=O)cc1 (stereo not given)
inactive: [8] 89 % of control | [9] 103 % of control | [10] 111 % of control

COc1cccc(CCNC(=O)CCN2C(=O)CCC2=O)c1
inactive: dose: 100.0 mg/kg/injection, schedule: Q01DX009 (ip), vehicle: saline with Tween-80 105 % of control | dose: 200.0 mg/kg/injection, schedule: Q01DX009 (ip), vehicle: saline with Tween-80 100 % of control | dose: 400.0 mg/kg/injection, schedule: Q01DX009 (ip), vehicle: saline with Tween-80 110 % of control

O=C1NC2CCCC1C(c1ccccc1Cl)NC2c1ccccc1Cl (stereo not given)
inactive: dose: 100.0 mg/kg/injection, schedule: Q04DX003 (ip), vehicle: suspension in saline 98 % of control | dose: 200.0 mg/kg/injection, schedule: Q04DX003 (ip), vehicle: suspension in saline 100 % of control | dose: 400.0 mg/kg/injection, schedule: Q04DX003 (ip), vehicle: suspension in saline 100 % of control

O=C(O)COc1ccccc1P(=O)(c1ccccc1)c1ccccc1
inactive: [11] 101 % of control | [12] 102 % of control | [13] 103 % of control

CCOC(=O)Cc1c(C)noc1OC
inactive: [7] 106 % of control | [8] 97 % of control | [9] 99 % of control | [10] 97 % of control

CC[N+]1(CC)c2ccccc2CC1C (stereo not given)
inactive: dose: 6.25 mg/kg/injection, schedule: Q01DX001 (ip), vehicle: saline 97 % of control | dose: 12.5 mg/kg/injection, schedule: Q01DX001 (ip), vehicle: saline 101 % of control | dose: 25.0 mg/kg/injection, schedule: Q01DX001 (ip), vehicle: saline 104 % of control

Clc1ccc(-c2cc3cc4c(cc3[nH]2)Sc2ccccc2O4)cc1
inactive: [1] 86 % of control | [2] 86 % of control | [3] 98 % of control

C/C(=N\NC(=S)N1CCC(C2CCN(C(=S)N/N=C(\C)c3ccccn3)CC2)CC1)c1ccccn1
inactive: [8] 112 % of control and 97 % of control | [9] 114 % of control and 122 % of control | [10] 118 % of control | dose: 400.0 mg/kg/injection, schedule: Q01DX005 (ip), vehicle: saline with Tween-80 120 % of control

CC(=O)CNc1ccccc1C(N)=O
inactive: [11] 101 % of control | [12] 95 % of control | [13] 104 % of control

Nc1ncc2c(n1)CSCC2=O
inactive: [4] 98 % of control | [5] 100 % of control | [6] 90 % of control
